“And” between values parts separate entries of the source, which are not always exact repeats. Equal entries are not always repeated.
Key:
KRAS WT = KRAS WT (Homo sapiens (Human), UniProt P01116+P62937); assay: Ras-Raf (BRAF RBD) disruption / FRET / MOA assay, KRAS WT; assay type: biochemical; conditions: read-out: IC50* KRAS WT FRET data
In short: (§1)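 Compounds, top final concentration 30 μM in 10-point 3-fold series, incubated 3 hours at 25° C with nucleotide-loaded Ras, cyclophilin A and BRAF RBD.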

NRAS G12C = NRAS G12C (Homo sapiens (Human), UniProt P01111+P62937, G12C); assay: Ras-Raf (BRAF RBD) disruption / FRET / MOA assay, NRAS G12C; assay type: biochemical; conditions: read-out: IC50* NRAS G12C FRET data
In short: as §1

KRAS G12D = KRAS G12D (Homo sapiens (Human), UniProt P01116+P62937, G12D); assay: Ras-Raf (BRAF RBD) disruption / FRET / MOA assay, KRAS G12D; assay type: biochemical; conditions: Ras-Raf disruption/FRET/MOA assay; class symbols; read-out: KRAS G12D FRET data IC50
In short: as §1

KRAS G12S = KRAS G12S (Homo sapiens (Human), UniProt P01116+P62937, G12S); assay: Ras-Raf (BRAF RBD) disruption / FRET / MOA assay, KRAS G12S; assay type: biochemical; conditions: Ras-Raf disruption/FRET/MOA assay; class symbols; read-out: KRAS G12S FRET data IC50
In short: as §1

K-Ras G13C = K-Ras G13C (Homo sapiens (Human), UniProt P01116+P62937, G13C); assay: Ras-Raf (BRAF RBD) disruption / FRET / MOA assay, KRAS G13C; assay type: biochemical; conditions: KRAS G13C; Ras-Raf disruption/FRET/MOA assay; read-out: IC50* KRAS G13C FRET data
In short: as §1

K-Ras G12C = K-Ras G12C (Homo sapiens (Human), UniProt P01116+P62937, G12C); assay: Ras-Raf (BRAF RBD) disruption / FRET / MOA assay, KRAS G12C; assay type: biochemical; conditions: KRAS G12C; Ras-Raf disruption/FRET/MOA assay; read-out: IC50* KRAS G12C FRET data
In short: as §1

KRAS G13D = KRAS G13D (Homo sapiens (Human), UniProt P01116+P62937, G13D); assay: Ras-Raf (BRAF RBD) disruption / FRET / MOA assay, KRAS G13D; assay type: biochemical; conditions: read-out: IC50* KRAS G13D FRET data
Protocol: The purpose of this biochemical assay is to measure the ability of test compounds to facilitate ternary complex formation between a nucleotide-loaded Ras isoform and cyclophilin A; the resulting ternary complex disrupts binding to a BRAF^RBD construct, inhibiting Ras signaling through a RAF effector.
(§2) Compound is present in plate wells as a 10-point 3-fold dilution series starting at a final concentration of 30 μM. After incubation at 25° C. for 3 hours, a mixture of Anti-His Eu-W1024 and anti-GST allophycocyanin is then added to assay sample wells at final concentrations of 10 nM and 50 nM, respectively, and the reaction incubated for an additional 1.5 hours. […] Compounds that facilitate disruption of a Ras:RAF complex are identified as those eliciting a decrease in the TR-FRET ratio relative to DMSO control wells.
This protocol may also be executed substituting other Ras proteins or nucleotides.
The purpose of this biochemical assay was to measure the ability of test compounds to facilitate ternary complex formation between a nucleotide-loaded K-Ras isoform and Cyclophilin A; the resulting ternary complex disrupts binding to a BRAF^RBD construct, inhibiting K-Ras signaling through a RAF effector. Data is reported as IC50 values.
as §2, with “Compound was” for “Compound is”, “allophycocyanin was” for “allophycocyanin is”, “a K-Ras:RAF” for “a Ras:RAF”, “complex were” for “complex are”

KRAS G12V = KRAS G12V (Homo sapiens (Human), UniProt P01116+P62937, G12V); assay: Ras-Raf (BRAF RBD) disruption / FRET / MOA assay, KRAS G12V; assay type: biochemical; conditions: read-out: IC50* KRAS G12V FRET data
In short: as §1

[1] = system: NCI-H358 cells (K-Ras G12C); assay: Potency assay: pERK in NCI-H358 cells; assay type: cell-based, human; conditions: Homo sapiens, NCI-H358; H358 KRAS G12C; read-out: pERK EC50
In short: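 pERK decrease read by AlphaLISA SureFire p-ERK1/2 or In-Cell Western after 4 h compound exposure at 37 °C, 5% CO2.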

K-Ras G12C, sequence (P01116-2 other isoform, or with tags, fused parts or gaps G12C): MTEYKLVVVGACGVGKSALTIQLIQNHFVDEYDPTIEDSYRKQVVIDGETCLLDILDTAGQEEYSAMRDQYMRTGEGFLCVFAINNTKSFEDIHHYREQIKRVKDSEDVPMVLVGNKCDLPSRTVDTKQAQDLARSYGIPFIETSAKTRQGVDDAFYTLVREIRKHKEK
K-Ras G12C, sequence (P62937 whole entry): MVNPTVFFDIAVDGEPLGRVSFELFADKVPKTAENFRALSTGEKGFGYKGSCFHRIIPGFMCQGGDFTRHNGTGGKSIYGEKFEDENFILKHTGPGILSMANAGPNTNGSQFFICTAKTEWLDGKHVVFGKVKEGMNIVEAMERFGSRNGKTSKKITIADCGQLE
KRAS G12S, sequence (P01116-2 other isoform, or with tags, fused parts or gaps G12S): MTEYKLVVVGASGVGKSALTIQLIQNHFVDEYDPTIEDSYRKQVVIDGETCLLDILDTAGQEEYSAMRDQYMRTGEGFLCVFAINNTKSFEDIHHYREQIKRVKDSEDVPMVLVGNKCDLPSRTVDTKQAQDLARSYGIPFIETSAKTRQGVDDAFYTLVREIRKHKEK
KRAS G12S, sequence (P62937 whole entry): as the sequence (P62937 whole entry) above
KRAS G12D, sequence (P01116-2 other isoform, or with tags, fused parts or gaps G12D): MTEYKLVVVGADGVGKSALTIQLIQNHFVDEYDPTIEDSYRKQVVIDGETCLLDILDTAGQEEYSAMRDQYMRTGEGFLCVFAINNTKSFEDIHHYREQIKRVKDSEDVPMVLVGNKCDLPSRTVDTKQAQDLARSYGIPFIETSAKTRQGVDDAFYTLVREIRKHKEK
KRAS G12D, sequence (P62937 whole entry): as the sequence (P62937 whole entry) above
KRAS G13D, sequence (P01116-2 other isoform, or with tags, fused parts or gaps G13D): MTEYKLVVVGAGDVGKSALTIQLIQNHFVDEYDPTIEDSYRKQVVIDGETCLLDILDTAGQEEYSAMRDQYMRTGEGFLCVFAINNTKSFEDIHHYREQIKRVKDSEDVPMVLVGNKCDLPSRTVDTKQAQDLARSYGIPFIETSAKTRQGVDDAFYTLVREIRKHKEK
KRAS G13D, sequence (P62937 whole entry, canonical isoform): as the sequence (P62937 whole entry) above
NRAS G12C, sequence (P01111 whole entry G12C): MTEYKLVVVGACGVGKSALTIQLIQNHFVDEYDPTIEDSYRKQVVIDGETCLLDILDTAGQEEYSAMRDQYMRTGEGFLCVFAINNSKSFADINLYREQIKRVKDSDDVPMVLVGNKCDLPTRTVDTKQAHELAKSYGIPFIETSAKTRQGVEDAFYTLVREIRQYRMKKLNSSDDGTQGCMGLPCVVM
NRAS G12C, sequence (P62937 whole entry): as the sequence (P62937 whole entry) above
K-Ras G13C, sequence (P01116-2 other isoform, or with tags, fused parts or gaps G13C): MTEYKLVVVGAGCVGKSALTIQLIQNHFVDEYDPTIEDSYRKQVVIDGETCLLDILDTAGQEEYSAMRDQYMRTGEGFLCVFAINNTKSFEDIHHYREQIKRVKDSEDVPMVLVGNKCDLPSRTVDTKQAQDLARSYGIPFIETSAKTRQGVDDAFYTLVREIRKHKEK
K-Ras G13C, sequence (P62937 whole entry): as the sequence (P62937 whole entry) above
KRAS G12V, sequence (P01116-2 other isoform, or with tags, fused parts or gaps G12V): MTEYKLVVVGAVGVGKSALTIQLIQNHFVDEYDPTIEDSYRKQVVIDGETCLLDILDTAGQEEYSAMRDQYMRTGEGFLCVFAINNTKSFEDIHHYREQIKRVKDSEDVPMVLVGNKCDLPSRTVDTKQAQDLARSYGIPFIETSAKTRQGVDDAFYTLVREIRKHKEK
KRAS G12V, sequence (P62937 whole entry): as the sequence (P62937 whole entry) above
KRAS WT, sequence (P01116-2 other isoform, or with tags, fused parts or gaps): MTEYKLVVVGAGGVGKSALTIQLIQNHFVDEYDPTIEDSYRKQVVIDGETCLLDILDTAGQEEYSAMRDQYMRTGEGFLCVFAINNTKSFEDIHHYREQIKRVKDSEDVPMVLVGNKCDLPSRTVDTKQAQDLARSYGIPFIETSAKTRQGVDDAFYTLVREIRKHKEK
KRAS WT, sequence (P62937 whole entry): as the sequence (P62937 whole entry) above

| IC50 (KRAS WT) | IC50 (NRAS G12C) | IC50 (KRAS G12D) [nM] | IC50 (KRAS G12S) | IC50 (K-Ras G13C) | IC50 (K-Ras G12C) | IC50 (KRAS G13D) | IC50 (KRAS G12V) | EC50 [1] [nM] | SMILES |
| --- | --- | --- | --- | --- | --- | --- | --- | --- | --- |
| 1000 to 10000 nM | 10 to 100 nM | > 10000 | 1000 to 10000 nM | 100 to 1000 nM | 10 to 100 nM | > 10000 nM | 1000 to 10000 nM | < 5000 | CO[C@@H](C)c1ncccc1-c1c2c3cc(ccc3n1CC(F)(F)F)-c1nnc(o1)C[C@H](NC(=O)[C@H](C(C)C)N(C)C(=O)[C@H]1CCN(C(=O)C#CC(C)(C)N3CCC3)C1)C(=O)N1CCC[C@H](N1)C(=O)OCC(C)(C)C2 [Example A423] |
| 10 to 100 nM | < 10 nM | 100 to 1000 | 10 to 100 nM | < 10 nM | < 10 nM | 10 to 100 nM | 100 to 1000 nM | < 5000 | C=CC(=O)N1CC2(CCN([C@H](C(=O)N[C@H]3Cc4cc(O)cc(c4)-c4ccc5c(c4)c(c(-c4cccnc4[C@H](C)OC)n5CC)CC(C)(C)COC(=O)[C@@H]4CCCN(N4)C3=O)C(C)C)C2=O)C1 (atropisomer, axis not shown) [Example A294] |
| 1 µM to 10 µM and > 10 µM (2×) | 100 to 1000 nM and 1000 to 10000 nM and > 10000 nM | > 10000 | 1 µM to 10 µM and > 10 µM (2×) | 10 nM to 100 nM and 1 µM to 10 µM (2×) | 10 nM to 100 nM and 1 µM to 10 µM (2×) | > 10000 nM | 1 µM to 10 µM and > 10 µM (2×) | < 5000 | C=CS(=O)(=O)N1CC[C@H](C(=O)N(C)[C@H](C(=O)N[C@H]2Cc3nc(cs3)-c3ccc4c(c3)c(c(-c3cccnc3[C@H](C)OC)n4CC)CC(C)(C)COC(=O)[C@@H]3CCCN(N3)C2=O)C(C)C)C1 (atropisomer, axis not shown) [Example A283] |
| 1000 to 10000 nM and > 10000 nM | 100 to 1000 nM and 1000 to 10000 nM | > 10000 | 1000 to 10000 nM and > 10000 nM | 1000 to 10000 nM and > 10000 nM | 100 to 1000 nM and 1000 to 10000 nM | 1000 to 10000 nM and > 10000 nM | 1000 to 10000 nM and > 10000 nM | < 5000 | C=CC(=O)C1C[C@@H](C(=O)N(C)[C@H](C(=O)N[C@H]2Cc3cc(O)cc(c3)-c3ccc4c(c3)c(c(-c3ccc5c(c3)CN(C)C5)n4CC)CC(C)(C)COC(=O)[C@@H]3CCCN(N3)C2=O)C(C)C)CN1 (stereo partly drawn) [Example A212] |
| 1000 to 10000 nM | 100 to 1000 nM | 1000 to 10000 | 1000 to 10000 nM | 100 to 1000 nM | 100 to 1000 nM | 1000 to 10000 nM | 1000 to 10000 nM | < 5000 | C=CC(=O)N1CC[C@@H](C(=O)N(C)[C@H](C(=O)N[C@H]2Cc3cccc(c3)-c3ccc4c(c3)c(c(-c3cccnc3[C@H](C)OC)n4CC)CC(C)(C)COC(=O)[C@@H]3CCCN(N3)C2=O)C(C)C)C1 (atropisomer, axis not shown) [Example A488] |

| SMILES | IC50 (KRAS WT) | IC50 (NRAS G12C) | IC50 (KRAS G12D) [nM] | IC50 (KRAS G12S) | IC50 (K-Ras G13C) | IC50 (K-Ras G12C) | IC50 (KRAS G13D) | IC50 (KRAS G12V) | EC50 [1] [nM] |
| --- | --- | --- | --- | --- | --- | --- | --- | --- | --- |
| C=CC(=O)N1CC[C@H](C(=O)N(C)[C@H](C(=O)N[C@H]2Cc3cccc(c3)-c3ccc4c(c3)c(c(-c3cc(C5CCN(C)CC5)cnc3[C@H](C)OC)n4CC)CC(C)(C)COC(=O)[C@@H]3CCCN(N3)C2=O)C(C)C)C1 (atropisomer, axis not shown) [Example A515] | 1000 to 10000 nM | 10 to 100 nM | 1000 to 10000 | 100 to 1000 nM | 100 to 1000 nM | 10 to 100 nM | 1000 to 10000 nM | 1000 to 10000 nM | < 5000 |
| CCn1c(-c2cccnc2[C@H](C)OC)c2c3cc(ccc31)-c1cc(cc(C(F)F)c1)C[C@H](NC(=O)[C@H](C(C)C)N(C)C(=O)[C@H]1CCN(C(=O)C#CC(C)(C)N3CCC3)C1)C(=O)N1CCC[C@H](N1)C(=O)OCC(C)(C)C2 (atropisomer, axis not shown) [Example A466] | 1000 to 10000 nM | 10 to 100 nM | > 10000 | 1000 to 10000 nM | 100 to 1000 nM | 10 to 100 nM | 1000 to 10000 nM | 1000 to 10000 nM | < 5000 |

Reference: patent US11566007B2, “Ras inhibitors” (Revolution Medicines, Inc., priority 2019, dated 2023)
